For data set [1], the system named is panel of experts in the sensory evaluation of foods and beverages. The experiment in a line: Sensory evaluation of sweetness linger and sugar-like taste by expert panel. In kind it is in vivo. As to conditions: scale 0=no sweetness linger to 5=high sweetness linger. As for the experimental part: Sensory evaluation of the samples prepared in Example Set G was carried out under the following protocol, similar to that described hereinabove. In this test protocol, none of the samples were swallowed. All samples were expectorated and the mouth was rinsed with water after the tasting. Immediately upon sensing maximal sweetness, the sample was expectorated, the mouth was rinsed with water and the rate of sweetness decay (“Sweetness Linger”) was measured, where attention was focused on the sweetness 3-4 min after the water rinse. After sample tasting was complete, a salty oyster cracker was chewed followed by a water rinse, and at least 5 minutes followed before tasting the next sample. The sweetness linger was rated by a panel of experts in the sensory evaluation of foods and beverages using the following scale: 0=no sweetness linger, 1=very slight sweetness linger, 2=slight sweetness linger, 3=moderate sweetness linger, 4=moderately high sweetness linger, 5=high sweetness linger.
The “Sweetness Linger” rating for sucrose observed by this protocol is defined as 0. The Sweetness Linger of a 500 ppm of REBA control sample is defined as 5. Experimental samples were tasted by the same protocol, always allowing sufficient time between samples to ensure re-equilibration of the sensory system. Re-tasting of control samples during the course of the experiment was allowed and encouraged.
The comparison taste test was performed between two controls and addition of sweet taste improving additive on the onset and/or sweetness linger.
Sweet taste improving compositions were combined with a REBA solution to determine their effect on sweetness linger. Screening of the initial sample, or further dilutions, allowed identification of concentrations which were just above-threshold, herein defined as “near-threshold concentrations.” The near-threshold additive concentrations, a 6- to 100-fold higher higher additive concentration (depending on the off-taste intensity), and a mid-level additive concentration (halfway between the near-threshold and higher additive concentration) were evaluated to determine the effect on sweetness linger of a REBA solution.
Formulations of a 500 ppm EBA in a phosphoric acid solution (75%) at a pH of 2.5 with phosphoric acid or a pH of 3.1 with citric acid and potassium citrate were prepared prior to the addition of the additives at the three levels of concentration.
Sensory evaluation using the protocol described in Example Set G then was used to evaluate the sweetness linger of the REBA solutions.

Data set [2] can be described thus: Rate of dissolution of rebaudioside A polymorph and amorphous forms in H2O. The format is physicochemical.
[3] abbreviates: Example Set G: citric acid/potassium citrate composition equivalent to diet lemon-lime beverage, 3-4 min after water rinse.
The mark [4] stands for this setting: Example Set H: carbon-treated water with phosphoric acid (75%) to pH 2.4-2.5.

Take rebaudioside A: the sweetness linger in data set [1] (setting [3]) and in data set [1] (setting [4]) was 5 throughout. For the compound rebaudioside A [Form 1], the “Rate of dissolution in H2O at 25° C.” value in data set [2] is listed as “Very low (<0.2%/ %/60 minutes”. For the compound `OC[C@H]1O[C@@](CO)(O[C@H]2O[C@H](CO)[C@@H](O)[C@H](O)[C@H]2O)[C@@H](O)[C@@H]1O` [sugar, sucrose], the sweetness linger in data set [1] (setting [3]) and in data set [1] (setting [4]) was 0 in each case.

Values taken from patent publication US20070134391A1, “High-Potency Sweetener Composition for Treatment and/or Prevention of Autoimmune Disorders and Compositions Sweetened Therewith” (THE COCA-COLA COMPANY, priority 2005, published 2007).
